Experimental data as given in PubChem BioAssay AID1963970 (Molecular Pharmacology Branch, DTP, NCI, 2024).
Values joined by “and” are separate entries in the source; they are usually repeats but may differ in a detail not shown here. Equal values may be shown once. Blank lines part the entries; values can stand above or below the molecule they belong to.

System: 931267-113-T-J1-PDC multicell spheroid viability
Assay: Anticancer human tumor 931267-113-T-J1-PDC patient-derived colon adenocarcinoma cell line growth inhibition [PI3K]
Conditions: for viability, T/C: stronger effect = lower value
Summary of the method: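 Multi-cell spheroids combine tumor cells with HUVEC and human MSCs, treated with targeted agents alone or with inavolisib, alpelisib, duvelisib or copanlisib. Concentrations fall in half-log steps from at or near clinical Cmax, or from 10 microM where Cmax is unknown; viability read-out.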

[1] = curve of first compound, second compound 0.00316 µM
[2] = curve of first compound, second compound 0.01 µM
[3] = curve of first compound, second compound 0.0316 µM
[4] = curve of first compound, second compound 0.1 µM
[5] = curve of first compound, second compound 0.316 µM
[6] = curve of first compound, second compound 1 µM
[7] = second compound 0.00316 µM, first compound 0.0316 µM
[8] = second compound 0.00316 µM, first compound 0.1 µM
[9] = second compound 0.00316 µM, first compound 0.316 µM
[10] = second compound 0.00316 µM, first compound 1 µM
[11] = second compound 0.00316 µM, first compound 3.16 µM
[12] = second compound 0.00316 µM, first compound 10 µM
[13] = second compound 0.01 µM, first compound 0.0316 µM
[14] = second compound 0.01 µM, first compound 0.1 µM
[15] = second compound 0.01 µM, first compound 0.316 µM
[16] = second compound 0.01 µM, first compound 1 µM
[17] = second compound 0.01 µM, first compound 3.16 µM
[18] = second compound 0.01 µM, first compound 10 µM
[19] = second compound 0.0316 µM, first compound 0.0316 µM
[20] = second compound 0.0316 µM, first compound 0.1 µM
[21] = second compound 0.0316 µM, first compound 0.316 µM
[22] = second compound 0.0316 µM, first compound 1 µM
[23] = second compound 0.0316 µM, first compound 3.16 µM
[24] = second compound 0.0316 µM, first compound 10 µM
[25] = second compound 0.1 µM, first compound 0.0316 µM
[26] = second compound 0.1 µM, first compound 0.1 µM
[27] = second compound 0.1 µM, first compound 0.316 µM
[28] = second compound 0.1 µM, first compound 1 µM
[29] = second compound 0.1 µM, first compound 3.16 µM
[30] = second compound 0.1 µM, first compound 10 µM
[31] = second compound 0.316 µM, first compound 0.0316 µM
[32] = second compound 0.316 µM, first compound 0.1 µM
[33] = second compound 0.316 µM, first compound 0.316 µM
[34] = second compound 0.316 µM, first compound 1 µM
[35] = second compound 0.316 µM, first compound 3.16 µM
[36] = second compound 0.316 µM, first compound 10 µM
[37] = second compound 1 µM, first compound 0.0316 µM
[38] = second compound 1 µM, first compound 0.1 µM
[39] = second compound 1 µM, first compound 0.316 µM
[40] = second compound 1 µM, first compound 1 µM
[41] = second compound 1 µM, first compound 3.16 µM
[42] = second compound 1 µM, first compound 10 µM
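Note: viability read 7 days after compound addition.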

IC50 [1]: 5160 nM
IC50 [2]: 5260 nM
IC50 [3]: 5050 nM
IC50 [4]: 3900 nM
IC50 [5]: 4090 nM
IC50 [6]: 3510 nM
SMILES: Cn1ncc(Cl)c1-c1cc(C(=O)NC(CN)Cc2cccc(F)c2)sc1Cl (centres undefined) + CC(Nc1ccc2c(c1)OCCn1cc(N3C(=O)OCC3C(F)F)nc1-2)C(N)=O
viability, T/C [7]: 94.7%
viability, T/C [8]: 102%
viability, T/C [9]: 85.5%
viability, T/C [10]: 88.3%
viability, T/C [11]: 71.1%
viability, T/C [12]: 22.8%
viability, T/C [13]: 98.3%
viability, T/C [14]: 90.7%
viability, T/C [15]: 91%
viability, T/C [16]: 79.2%
viability, T/C [17]: 70.9%
viability, T/C [18]: 27.6%
viability, T/C [19]: 103%
viability, T/C [20]: 89.2%
viability, T/C [21]: 94.8%
viability, T/C [22]: 86.3%
viability, T/C [23]: 66.1%
viability, T/C [24]: 25.9%
viability, T/C [25]: 110%
viability, T/C [26]: 92.6%
viability, T/C [27]: 92.5%
viability, T/C [28]: 75.1%
viability, T/C [29]: 61.1%
viability, T/C [30]: 20.3%
viability, T/C [31]: 80.8%
viability, T/C [32]: 94.4%
viability, T/C [33]: 76.4%
viability, T/C [34]: 73.2%
viability, T/C [35]: 60.1%
viability, T/C [36]: 20.9%
viability, T/C [37]: 82%
viability, T/C [38]: 70.7%
viability, T/C [39]: 80.7%
viability, T/C [40]: 63.8%
viability, T/C [41]: 54.7%
viability, T/C [42]: 21.4%

IC50 [1]: 93.1 nM
IC50 [2]: 91.6 nM
IC50 [3]: 68.5 nM
IC50 [4]: 31.2 nM
IC50 [5]: 1.49 nM
IC50 [6]: < 0.316 nM
SMILES: CC(C)n1nc(-c2ccc3oc(N)nc3c2)c2c(N)ncnc21 + COc1c(OCCCN2CCOCC2)ccc2c3n(c(=NC(=O)c4cnc(N)nc4)nc12)CCN3
viability, T/C (second compound 0.00316 µM, first compound 0.000316 µM): 90.4%
viability, T/C (second compound 0.00316 µM, first compound 0.001 µM): 97.9%
viability, T/C (second compound 0.00316 µM, first compound 0.00316 µM): 94.1%
viability, T/C (second compound 0.00316 µM, first compound 0.01 µM): 96%
viability, T/C [7]: 88.6%
viability, T/C [8]: 47.3%
viability, T/C (second compound 0.01 µM, first compound 0.000316 µM): 96.2%
viability, T/C (second compound 0.01 µM, first compound 0.001 µM): 90.2%
viability, T/C (second compound 0.01 µM, first compound 0.00316 µM): 88.1%
viability, T/C (second compound 0.01 µM, first compound 0.01 µM): 82.3%
viability, T/C [13]: 75.4%
viability, T/C [14]: 47.2%
viability, T/C (second compound 0.0316 µM, first compound 0.000316 µM): 90.5%
viability, T/C (second compound 0.0316 µM, first compound 0.001 µM): 82.1%
viability, T/C (second compound 0.0316 µM, first compound 0.00316 µM): 80.5%
viability, T/C (second compound 0.0316 µM, first compound 0.01 µM): 72.4%
viability, T/C [19]: 60.3%
viability, T/C [20]: 44.6%
viability, T/C (second compound 0.1 µM, first compound 0.000316 µM): 76.5%
viability, T/C (second compound 0.1 µM, first compound 0.001 µM): 66%
viability, T/C (second compound 0.1 µM, first compound 0.00316 µM): 64.4%
viability, T/C (second compound 0.1 µM, first compound 0.01 µM): 60.9%
viability, T/C [25]: 51.8%
viability, T/C [26]: 34.5%
viability, T/C (second compound 0.316 µM, first compound 0.000316 µM): 55.5%
viability, T/C (second compound 0.316 µM, first compound 0.001 µM): 50.8%
viability, T/C (second compound 0.316 µM, first compound 0.00316 µM): 46.3%
viability, T/C (second compound 0.316 µM, first compound 0.01 µM): 43.1%
viability, T/C [31]: 36%
viability, T/C [32]: 29%
viability, T/C (second compound 1 µM, first compound 0.000316 µM): 37.1%
viability, T/C (second compound 1 µM, first compound 0.001 µM): 35.8%
viability, T/C (second compound 1 µM, first compound 0.00316 µM): 35.3%
viability, T/C (second compound 1 µM, first compound 0.01 µM): 32.1%
viability, T/C [37]: 27.5%
viability, T/C [38]: 22.2%

IC50 [3]: 4760 nM
IC50 [4]: 3570 nM
IC50 [5]: 2380 nM
IC50 [6]: 1470 nM
IC50 (curve of first compound, second compound 3.16 µM): 650 nM
IC50 (curve of first compound, second compound 10 µM): 143 nM
SMILES: Cn1nccc1Nc1nccc(-c2ccn(C(CO)c3ccc(Cl)c(F)c3)c(=O)c2)n1 (centres undefined) + Cc1nc(NC(=O)N2CCCC2C(N)=O)sc1-c1ccnc(C(C)(C)C(F)(F)F)c1
viability, T/C [19]: 94.7%
viability, T/C [20]: 90.4%
viability, T/C [21]: 92.4%
viability, T/C [22]: 77.2%
viability, T/C [23]: 57.5%
viability, T/C [24]: 37.3%
viability, T/C [25]: 102%
viability, T/C [26]: 88.4%
viability, T/C [27]: 82.8%
viability, T/C [28]: 68.9%
viability, T/C [29]: 52.9%
viability, T/C [30]: 31.7%
viability, T/C [31]: 90.3%
viability, T/C [32]: 92.2%
viability, T/C [33]: 77.9%
viability, T/C [34]: 68%
viability, T/C [35]: 43.9%
viability, T/C [36]: 27.5%
viability, T/C [37]: 86.4%
viability, T/C [38]: 78.5%
viability, T/C [39]: 71.4%
viability, T/C [40]: 54%
viability, T/C [41]: 39.5%
viability, T/C [42]: 19.1%
viability, T/C (second compound 3.16 µM, first compound 0.0316 µM): 74.9%
viability, T/C (second compound 3.16 µM, first compound 0.1 µM): 65.2%
viability, T/C (second compound 3.16 µM, first compound 0.316 µM): 58.1%
viability, T/C (second compound 3.16 µM, first compound 1 µM): 43.6%
viability, T/C (second compound 3.16 µM, first compound 3.16 µM): 36.3%
viability, T/C (second compound 3.16 µM, first compound 10 µM): 15.2%
viability, T/C (second compound 10 µM, first compound 0.0316 µM): 57%
viability, T/C (second compound 10 µM, first compound 0.1 µM): 50.7%
viability, T/C (second compound 10 µM, first compound 0.316 µM): 45.2%
viability, T/C (second compound 10 µM, first compound 1 µM): 39.4%
viability, T/C (second compound 10 µM, first compound 3.16 µM): 26.4%
viability, T/C (second compound 10 µM, first compound 10 µM): 14.3%

IC50 (curve of compound): 6.15 µM [middle of 4 runs]
SMILES: CCCS(=O)(=O)Nc1ccc(F)c(C(=O)c2c[nH]c3ncc(-c4ccc(Cl)cc4)cc23)c1F
viability, T/C (compound 0.0316 µM): 102% (2×) and 106% and 94%
viability, T/C (compound 0.1 µM): 116% (2×) and 93.5% and 96.7%
viability, T/C (compound 0.316 µM): 109% [middle of 4 runs]
viability, T/C (compound 1 µM): 129% [middle of 4 runs]
viability, T/C (compound 10 µM): 5.21% [middle of 4 runs]

IC50 [1]: 531 nM
IC50 [2]: 419 nM
IC50 [3]: 364 nM
IC50 [4]: 219 nM
IC50 [5]: 179 nM
IC50 [6]: 55.8 nM
SMILES: C#Cc1c(F)ccc2cc(O)cc(-c3ncc4c(N5CC6CCC(C5)N6)nc(OCC56CCCN5CC(F)C6)nc4c3F)c12 (centres undefined) + CC(Nc1ccc2c(c1)OCCn1cc(N3C(=O)OCC3C(F)F)nc1-2)C(N)=O
viability, T/C [7]: 76.7%
viability, T/C [8]: 76.6%
viability, T/C [9]: 49%
viability, T/C [10]: 45.8%
viability, T/C [11]: 33.9%
viability, T/C [12]: 26%
viability, T/C [13]: 79%
viability, T/C [14]: 65.4%
viability, T/C [15]: 52.9%
viability, T/C [16]: 41.8%
viability, T/C [17]: 31.3%
viability, T/C [18]: 24.8%
viability, T/C [19]: 83.5%
viability, T/C [20]: 65.3%
viability, T/C [21]: 53.4%
viability, T/C [22]: 36.6%
viability, T/C [23]: 29.1%
viability, T/C [24]: 18.8%
viability, T/C [25]: 82.4%
viability, T/C [26]: 63.3%
viability, T/C [27]: 43.7%
viability, T/C [28]: 29.4%
viability, T/C [29]: 22.9%
viability, T/C [30]: 17%
viability, T/C [31]: 72.3%
viability, T/C [32]: 56.4%
viability, T/C [33]: 45%
viability, T/C [34]: 25.1%
viability, T/C [35]: 19.8%
viability, T/C [36]: 13.3%
viability, T/C [37]: 57.5%
viability, T/C [38]: 43.9%
viability, T/C [39]: 26%
viability, T/C [40]: 23.6%
viability, T/C [41]: 14.7%
viability, T/C [42]: 10.8%
